US20140073694A1, “CYSTAMINE ANALOGUES FOR THE TREATMENT OF PARKINSON'S DISEASE” (UNIVERSITE LAVAL, priority 2011, published 2014)

Test system: 6-OHDA lesioned mice
Experiment: Unilateral striatal 6-OHDA mouse model, neurorestoration experiment (behaviour and post-mortem)
Type: in vivo, C57BL/6 mice
Description: Young adult (9-week old, 25 grams) male C57BL/6 mice were purchased from Charles River Laboratories (Montréal, QC, Canada). Animals were housed 4 per cage under standard conditions with free access to food and water, randomized and handled under the same conditions by one investigator. All experiments were performed in accordance with the Canadian Council on Animal Care and were approved by the Institutional Committee of the Centre Hospitalier de l'Université Laval (CHUL). Throughout the experiment, the health status of all mice included in the study was closely monitored for weight loss or other signs of health-related issues. All efforts were made to minimize animal pain and discomfort.
This protocol was based on the unilateral stereotaxic intra-striatal injection of 6-hydroxydopamine (6-OHDA). Intrastriatal administration of 6-OHDA creates a progressive and retrograde degenerative changes in DA neurons of the substantia nigra (Bjorklund et al., 1997; Costantini et al., 2001). Mice were anaesthetized using isoflurane and placed onto a stereotactic frame adapted for mice. 6-OHDA was dissolved at a concentration of 2 μg/μl in 0.9% saline and 0.02% ascorbic acid and 2 μl was injected in the right striatum at a rate of 0.5 μl/min. The needle was left in place for 3 min after the injection before retraction. The injection was performed using an Hamilton syringe according to the stereotaxic co-ordinates: AP: +0.04 cm, ML: −0.18 cm, DV: −0.31 cm (corresponding to the atlas of Allan P. 2008).
To serve as controls, other mice were subjected to the same surgical procedures, but only 2 μl of solvent (0.9% saline and 0.02% ascorbic acid) was injected in the same coordinates. The study was further divided into 2 distinct experiments: • 1) The neurorescuing effects of cystamine (cystamine dihydrochloride, Sigma, St. Louis, Mo.) in 6-OHDA leisoned mice. For this experiment, the first i.p. injection of 10 mg/kg cystamine was administered 3 days post surgery and the treatment continued daily for 14 days. • 2) The neurorestorative effects of cystamine (cystamine dihydrochloride, Sigma, St. Louis, Mo.) in 6-OHDA lesioned mice. The treatment of cystamine began 3 weeks post surgery, when the dopaminergic (DAergic) lesion is known to be stable and has reached its peak. The treatment was continued daily for 6 weeks.
The effects of cystamine on the 6-OHDA toxicity were studied in the following experimental groups: Group I, Sham+Saline; Group II, 6-OHDA+Saline; Group III; Sham+Cystamine; Group IV, 6-OHDA+Cystamine. In total, 40 mice (n=10 per group) were utilized for each experiment, monitored daily for weight variation, and ultimately sacrificed by perfusion 24 hrs after the last cystamine (or vehicle) injection.
Animals were sacrificed under deep anesthesia with ketamine/xylazine (Vetalar, Bioniche, Belleville, ON/Rompun, Bayer, Toronto, ON). All mice were subjected to intracardiac perfusion with RNAse free 0.1 M phosphate-buffered saline (PBS). After intracardiac perfusion, brains were collected and the posterior brain of each mice, comprising the entire mesencephalon, was post-fixed in 4% PFA for additional immunohistochemistry and in situ hybridization analyses. The anterior brain, comprising the right and left striatum, was snap-frozen and used for HPLC and WB analyses.
Catecholamine quantification by HPLC, TH immunohistochemistry and in situ hybridization for Nurr1 and DAT were conducted as described in Example 1.
The loss of DAergic neurons was determined by stereological counts of TH-immunoreactive cells (identifiable somas) under bright-field illumination. Every 10th section through the SNc was analyzed using Stereo investigator software (MicroBrighffield, Colchester, Vt., USA) attached to an E800 Nikon microscope (Nikon Canada Inc., Mississauga, ON, Canada). After delineation of the SNc at low magnification (4× objective), a point grid was overlaid onto each section. […]

In the case of `NCCSSCCN` [cystamine, Cystamine], the “restoration of DA content in the lesioned striatum” value (10 mg/kg daily for 6 weeks from 3 weeks post-lesion) is reported as “did not significantly restore DA content”, the “cylinder test, limb-use asymmetry (percentage of contralateral contacts)” value (10 mg/kg daily for 6 weeks from 3 weeks post-lesion, 6 and 9 weeks post-lesion) is reported as “asymmetry was not visible” and the apomorphine-induced contralateral rotations (10 mg/kg daily for 6 weeks from 3 weeks post-lesion, 6 and 9 weeks post-surgery) is reported as “significantly attenuated by the cystamine treatment”. For the same molecule, the “decrease of striatal DA levels measured by HPLC” value (6-OHDA lesioned mice, 10 mg/kg daily for 6 weeks from 3 weeks post-lesion) was 84%, the “decrease in the total number of TH-positive neurons in the SNpc” value (6-OHDA+cystamine vs sham+cystamine, 10 mg/kg daily for 6 weeks from 3 weeks post-lesion) was 65% and the DA turnover (vs 6-OHDA mice treated with saline) was “strong tendency to normalise the DA turnover”.
